Assays:
hCB2 receptors = target: T1, hCB2 receptors (Homo sapiens, UniProt P34972); experiment: [35S]GTPγS binding assay, CHO-hCB2 cell membranes; format: biochemical; conditions: for KB-value times less than Ki-value: CHO cell membranes, KB ([35S]GTPγS) versus Ki ([3H]CP55940 displacement)
T1 construct: expressed in transfected cells; host or cells: CHO cells
Method: (§1) Nonspecific binding was measured in the presence of 30 μM GTPγS.
The concentrations of [^35S]GTPγS and GDP present in the assay varied depending on whether the assay was conducted with mouse brain or transfected cell membranes. When the assay was conducted with mouse brain membranes, 0.1 nM [^35S]GTPγS and 30 μM GDP were present, whereas the corresponding concentrations present when the assay was conducted with transfected cell membranes were 1 nM and 320 μM respectively.
Additionally, mouse brain membranes were preincubated for 30 minutes at 30° C. with 0.5 U ml^−1 adenosine deaminase to remove endogenous adenosine. Agonists and antagonists were stored as a stock solution of 1 or 10 mM in DMSO, the vehicle concentration in all assay tubes being 0.11% DMSO.
Net agonist-stimulated [^35S]GTPγS binding values were calculated by subtracting basal binding values (obtained in the absence of agonist) from agonist-stimulated values (obtained in the presence of agonist) as detailed elsewhere (Ross et al., 1999a).
(§2) The apparent dissociation constant (KB) values for antagonism of agonists by THCV in the vas deferens or [^35S]GTPγS binding assay have been calculated by Schild analysis from the concentration ratio, defined as the concentration of an agonist that elicits a response of a particular size in the presence of a competitive reversible antagonist at a concentration, B, divided by the concentration of the same agonist that produces an identical response in the absence of the antagonist.
(§3) Mean values have been compared using Student's two-tailed t-test for unpaired data or one-way analysis of variance (ANOVA) followed by Dunnett's test (GraphPad Prism). A P-value <0.05 was considered to be significant.

[1] = clinical study, at least some of the patients; cited from earlier work
CB1 receptor [2] = target: T2, CB1 receptor (Mus musculus, UniProt P47746); experiment: [35S]GTPγS binding assay, mouse brain membranes; format: biochemical
T2 construct: membranes prepared from healthy brain tissue, which is densely populated with CB1 but not CB2 receptors; from tissue; host or cells: mouse brain membranes
Method: as §1
The concentrations of [^35S]GTPγS and GDP present in the assay varied depending on whether the assay was conducted with mouse brain or transfected cell membranes.
Additionally, mouse brain membranes were preincubated for 30 minutes at 30° C. with 0.5 U ml^−1 adenosine deaminase to remove endogenous adenosine.
as §2, §3

vas deferens = experiment: Electrically-evoked twitch response of the vas deferens; conditions: at concentrations that antagonise cannabinoids
From the text: Inhibition of the electrically-evoked twitch response of the vas deferens has been expressed in percentage terms and this has been calculated by comparing the amplitude of the twitch response after each addition of a twitch inhibitor with its amplitude immediately before the first addition of the inhibitor. Contractile responses to phenylephrine and β,γ-methylene-ATP have been expressed as increases in tension (g).
as §2

CB1 receptor [3] = target: T2, CB1 receptor; experiment: Radioligand displacement assay, mouse brain membranes; format: binding
Method: Binding was initiated by the addition of either the brain membranes (33 μg protein per tube) or the transfected hCB2 cells (25 μg protein per tube).
All assays were performed at 37° C. for 60 min before termination by addition of ice-cold wash buffer (50 mM Tris buffer, 1 mg ml^−1 bovine serum albumin, pH 7.4) and vacuum filtration using a 24-well sampling manifold and GF/B filters that had been soaked in wash buffer at 4° C. for at least 24 h.
Each reaction tube was washed six times with a 1.2 ml aliquot of wash buffer. The filters were oven-dried for 60 min and then placed in 5 ml of scintillation fluid. Radioactivity was quantified by liquid scintillation spectrometry.
Specific binding was defined as the difference between the binding that occurred in the presence and absence of 1 μM unlabelled CP55940.
Values are expressed as means and variability as s.e.mean or as 95% confidence limits.

T1 sequence (P34972 whole entry): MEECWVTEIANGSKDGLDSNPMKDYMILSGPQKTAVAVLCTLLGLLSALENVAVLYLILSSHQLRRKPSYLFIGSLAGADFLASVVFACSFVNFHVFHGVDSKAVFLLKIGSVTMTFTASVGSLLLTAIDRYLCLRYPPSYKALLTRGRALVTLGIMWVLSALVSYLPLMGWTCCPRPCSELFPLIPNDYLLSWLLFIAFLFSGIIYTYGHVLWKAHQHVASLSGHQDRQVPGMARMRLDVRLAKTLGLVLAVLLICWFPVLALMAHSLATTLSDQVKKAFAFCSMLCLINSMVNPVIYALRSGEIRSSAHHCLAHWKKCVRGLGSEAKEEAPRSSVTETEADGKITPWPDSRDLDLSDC
T2 sequence (P47746 whole entry): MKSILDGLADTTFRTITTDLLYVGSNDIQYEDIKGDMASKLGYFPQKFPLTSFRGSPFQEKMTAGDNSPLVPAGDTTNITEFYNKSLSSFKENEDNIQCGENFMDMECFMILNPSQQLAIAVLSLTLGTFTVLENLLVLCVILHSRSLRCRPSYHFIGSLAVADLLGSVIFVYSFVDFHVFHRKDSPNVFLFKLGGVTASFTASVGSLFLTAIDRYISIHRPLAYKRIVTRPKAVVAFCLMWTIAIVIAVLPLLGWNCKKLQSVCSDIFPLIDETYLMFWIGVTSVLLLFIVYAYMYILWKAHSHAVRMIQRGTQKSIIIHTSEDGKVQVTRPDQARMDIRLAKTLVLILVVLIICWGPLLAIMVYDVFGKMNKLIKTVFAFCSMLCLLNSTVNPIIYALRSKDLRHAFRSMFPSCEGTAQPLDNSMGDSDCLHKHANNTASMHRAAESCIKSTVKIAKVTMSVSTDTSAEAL

## SR144528 [reference compound]
hCB2 receptors
  KB-value times less than Ki-value: 15 times

## Cc1c(C(=O)NN2CCCCC2)nn(-c2ccc(Cl)cc2Cl)c1-c1ccc(Cl)cc1 [SR141716A]
[1]
  depression in patients enrolled in the trials: significant increase in depression

## CCCc1cc(O)c2c(c1)OC(C)(C)[C@@H]1CCC(C)=C[C@@H]21 [THCV, tetrahydrocannabidivarin]
CB1 receptor [2]; mouse brain membranes, at concentrations that antagonise cannabinoids
  effect by itself on the ability of [35S]GTPγS to bind: did not affect
Vas deferens
  effect by itself on the amplitude of the electrically-evoked contractions: did not affect
hCB2 receptors; CHO-hCB2 cell membranes, at concentrations that antagonise cannabinoids
  effect by itself on the ability of [35S]GTPγS to bind: did not affect

## CCCCCCC(C)(C)c1ccc([C@@H]2C[C@H](O)CC[C@H]2CCCO)c(O)c1 [[^3H]CP55940]
CB1 receptor [3]
  Kd: 2.31 nM

## C=C(C)[C@@H]1CCC(C)=C[C@H]1c1c(O)cc(CCCCC)cc1O [CBD, cannabidiol]
CB1 receptor [2]; 10 μM, both compounds, mouse brain membrane
  inhibitory effect on [35S]GTPγS binding compared with SR141716A: greatly exceeded that of SR141716A
CB1 receptor [2]; compound alone at 1 and 10 μM
  inhibition of [35S]GTPγS binding to the mouse brain membrane: significant inhibition
hCB2 receptors
  KB-value times less than Ki-value: 65 times

From US20100317729A1 (GW Pharma Limited, priority 2007, published 2010)
